Laboratory results: ChEMBL document CHEMBL1142403, “Synthesis and anti-cancer activity of benzothiazole containing phthalimide on human carcinoma cell lines” (Bioorg Med Chem, 2008)
Active and inactive are the calls of the source. The calls are words filed in the database; no cut-off is given here.

How the values were obtained:
SK-HEP1 = assay: Cytotoxicity against human SK-Hep1 cells assessed as reduction in cellular ATP level after 48 hrs; format: functional, cell-based; conditions: SK-HEP1, 48 h, pooled result: one value given for 3 cell lines, strains, targets or settings
Caspase-3 (Homo sapiens) [1] = biological target: T1, Caspase-3 (Homo sapiens) (UniProt P42574); assay: Activation of human caspase 3 in human CA46 cells at 110 uM after 48 hrs by PerkinElmer Trupoint assay; format: cell-based
T1 sequence (whole entry): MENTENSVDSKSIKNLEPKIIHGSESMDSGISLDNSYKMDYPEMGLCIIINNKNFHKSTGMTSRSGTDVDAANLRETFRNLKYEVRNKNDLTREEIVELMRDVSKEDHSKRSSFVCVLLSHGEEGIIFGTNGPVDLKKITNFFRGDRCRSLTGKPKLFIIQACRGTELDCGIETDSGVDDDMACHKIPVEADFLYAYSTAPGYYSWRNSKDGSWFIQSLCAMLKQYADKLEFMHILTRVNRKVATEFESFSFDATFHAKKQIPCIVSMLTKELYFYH

Caspase-3 (Homo sapiens) [2] = biological target: T1, Caspase-3 (Homo sapiens); assay: Activation of human caspase 3 in human SK-Hep1 cells at 110 uM after 48 hrs by PerkinElmer Trupoint assay; format: cell-based

Molecule `C[C@@]12C(=O)N(c3nc4ccc(OC(F)(F)F)cc4s3)C(=O)[C@]1(C)[C@H]1CC[C@@H]2O1` [CANTHARIDIMIDE] has an IC50 (SK-HEP1) of 15.2 µM.
`O=C1c2ccccc2C(=O)N1c1nc2ccc(OC(F)(F)F)cc2s1` [PHATHALIMIDE] was tested, and the Activity (Caspase-3 (Homo sapiens) [1]) was “Active”, the IC50 (SK-HEP1) was 69 µM and the Activity (Caspase-3 (Homo sapiens) [2]) was “Active”.
